From BindingDB's records for patent US20240425513 (Carmot Therapeutics, 2024)

Biological target: T1, Ubiquitin carboxyl-terminal hydrolase 28 (Homo sapiens, UniProt Q96RU2)
T1 sequence (Q96RU2 whole entry): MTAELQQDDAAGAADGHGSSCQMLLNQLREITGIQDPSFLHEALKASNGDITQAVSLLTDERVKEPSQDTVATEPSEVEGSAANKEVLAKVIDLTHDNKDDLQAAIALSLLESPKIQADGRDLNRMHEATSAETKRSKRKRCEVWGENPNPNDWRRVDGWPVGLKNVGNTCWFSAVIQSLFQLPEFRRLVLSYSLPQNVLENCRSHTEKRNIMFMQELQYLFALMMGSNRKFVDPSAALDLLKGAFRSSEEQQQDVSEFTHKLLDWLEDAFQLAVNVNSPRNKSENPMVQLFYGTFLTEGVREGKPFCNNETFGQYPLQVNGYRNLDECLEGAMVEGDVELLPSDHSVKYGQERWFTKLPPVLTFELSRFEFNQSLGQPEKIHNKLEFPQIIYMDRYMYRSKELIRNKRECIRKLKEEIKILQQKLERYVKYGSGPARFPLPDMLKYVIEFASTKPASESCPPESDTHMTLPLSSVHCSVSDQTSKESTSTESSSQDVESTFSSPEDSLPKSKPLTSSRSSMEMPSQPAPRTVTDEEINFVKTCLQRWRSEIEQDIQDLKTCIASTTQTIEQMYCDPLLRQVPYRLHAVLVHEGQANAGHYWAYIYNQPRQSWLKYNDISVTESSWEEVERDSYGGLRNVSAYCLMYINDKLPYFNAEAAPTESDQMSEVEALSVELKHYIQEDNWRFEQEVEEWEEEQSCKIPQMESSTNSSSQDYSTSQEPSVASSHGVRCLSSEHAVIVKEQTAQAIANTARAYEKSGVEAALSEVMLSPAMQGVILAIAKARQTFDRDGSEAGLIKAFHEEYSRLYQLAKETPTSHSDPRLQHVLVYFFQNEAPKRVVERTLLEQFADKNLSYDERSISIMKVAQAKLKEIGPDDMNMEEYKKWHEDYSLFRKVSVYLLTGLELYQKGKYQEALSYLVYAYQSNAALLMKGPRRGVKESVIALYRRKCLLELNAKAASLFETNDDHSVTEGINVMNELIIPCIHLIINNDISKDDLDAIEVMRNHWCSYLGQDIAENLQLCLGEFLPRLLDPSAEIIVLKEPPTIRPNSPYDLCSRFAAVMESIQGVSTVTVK
Assay: Ubiquitin-Rhodamine 110 Assay
Procedure: Enzyme (His6 USP28, BostonBiochem, #E-570) concentration and incubation times were optimized for the maximal signal to background while maintaining the initial velocity conditions at a fixed substrate concentration. […] 2 μl of 4× enzyme was added to assay plates (pre stamped with compound) and incubated for 2 h at room temperature. […] of 4× substrate was subsequently added to the assay plates and incubated for 2 h at room temperature.

IC50: > 1 µM
SMILES: CC(Oc1ccc(-c2nc(Cc3cccc(Cl)c3)no2)cc1)C(=O)N[C@@H]1C[C@@H](C)N(C#N)C1 (stereo partly specified) [US20240425513, Example 11]
